Experimental data: US10780074B2, “Compounds and uses thereof” (Sunovion Pharmaceuticals Inc., priority 2017, dated 2020)
Where a name gives a salt, the structure may show the parent alone.

Test system: behaviors of compound-treated mice
Assay: Neuropharmacological Assay (SmartCube)
Assay type: in vivo
Details: for minimal effective dose: Mus musculus, ip, 0.25 h, dose having 50% or more total activity in SmartCube, i.p., read-out: MED (minimal effective dose); for AD: ADHD (probability that activity matches class) / AG: analgesic (probability that activity matches class) / AX: anxiolytic (probability that activity matches class) / CE: cognitive enhancer (probability that activity matches class) / DP: anti-depressant (probability that activity matches class) / MS: mood stabilizer (probability that activity matches class) / PS: anti-psychotic (probability that activity matches class) / SD: sedative hypnotic (probability that activity matches class) / UN: uncharacterized CNS activity (probability that activity matches class): i.p. 15 min before behavioral test, most efficacious dose(s) of 3 doses
Method in brief: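 Mice dosed i.p. 15 min before testing, with compound in N-methyl-2-pyrrolidone/PEG/propylene glycol, were video-recorded and algorithmically compared with reference-drug behavioral signatures. This gave class-match probabilities (antidepressant, anxiolytic, etc.) at the most efficacious of 3 doses. MED was defined as the dose with ≥50% total activity, usually tested across 0.3–30 mpk.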

Row | Structure (SMILES) | minimal effective dose [mg/kg] | AD: ADHD (probability that activity matches class) | AG: analgesic (probability that activity matches class) | AX: anxiolytic (probability that activity matches class) | CE: cognitive enhancer (probability that activity matches class) | DP: anti-depressant (probability that activity matches class) | MS: mood stabilizer (probability that activity matches class) | PS: anti-psychotic (probability that activity matches class) | SD: sedative hypnotic (probability that activity matches class) | UN: uncharacterized CNS activity (probability that activity matches class)
1 | NC[C@@H]1OCc2c(-c3cccnc3)cccc21 [Compound 35, (R)-(4-(Pyridin-3-yl)-1,3-dihydroisobenzofuran-1-yl)methanamine hydrochloride] | 3 to 10 | ++ (5% ≤ ++ <25%) | + (LOQ ≤ + <5%) | ++ (5% ≤ ++ <25%) | + (LOQ ≤ + <5%) | ++++ (50% ≤ ++++) | + (LOQ ≤ + <5%) | + (LOQ ≤ + <5%) | + (LOQ ≤ + <5%) | + (LOQ ≤ + <5%)
2 | CNC[C@@H]1OCCc2cc(-c3ncccn3)ccc21 [Compound 21, (R)—N-Methyl-1-(6-(pyrimidin-2-yl)isochroman-1-yl)methanamine hydrochloride salt] | 10 to 30 | + (LOQ ≤ + <5%) | ++ (5% ≤ ++ <25%) | ++ (5% ≤ ++ <25%) | ++ (5% ≤ ++ <25%) | ++ (5% ≤ ++ <25%) | + (LOQ ≤ + <5%) | + (LOQ ≤ + <5%) | + (LOQ ≤ + <5%) | + (LOQ ≤ + <5%)
3 | NC[C@@H]1OCCc2c(-c3cocn3)cccc21 [Compound 100, (R)-(5-(oxazol-4-yl)isochroman-1-yl)methanamine HCl salt] | 3 to 10 | + (LOQ ≤ + <5%) | + (LOQ ≤ + <5%) | ++ (5% ≤ ++ <25%) | + (LOQ ≤ + <5%) | + (LOQ ≤ + <5%) | + (LOQ ≤ + <5%) | + (LOQ ≤ + <5%) | + (LOQ ≤ + <5%) | ++++ (50% ≤ ++++)
4 | NC[C@@H]1OCCc2c(-c3ncc[nH]3)cccc21 (single isomer, unassigned) [Compound 108, hydrochloride salt] | 10 to 30 | + (LOQ ≤ + <5%) | ++ (5% ≤ ++ <25%) | ++ (5% ≤ ++ <25%) | + (LOQ ≤ + <5%) | ++ (5% ≤ ++ <25%) | + (LOQ ≤ + <5%) | ++ (5% ≤ ++ <25%) | ++ (5% ≤ ++ <25%) | +++ (25% ≤ +++ <50%)
5 | NC[C@H]1OCCc2c(-c3ccccc3)cccc21 (single isomer, unassigned) [Compound 131, hydrochloride salt] | ≤ 3 | + (LOQ ≤ + <5%) | + (LOQ ≤ + <5%) | ++ (5% ≤ ++ <25%) | + (LOQ ≤ + <5%) | ++++ (50% ≤ ++++) | + (LOQ ≤ + <5%) | + (LOQ ≤ + <5%) | + (LOQ ≤ + <5%) | ++ (5% ≤ ++ <25%)
6 | NCC1OCCc2c(-c3cnoc3)cccc21 (stereo not shown) [Compound 64, (5-(Isoxazol-4-yl)isochroman-1-yl)methanamine hydrochloride salt] | 3 to 10 | + (LOQ ≤ + <5%) | + (LOQ ≤ + <5%) | + (LOQ ≤ + <5%) | + (LOQ ≤ + <5%) | ++++ (50% ≤ ++++) | + (LOQ ≤ + <5%) | + (LOQ ≤ + <5%) | + (LOQ ≤ + <5%) | ++ (5% ≤ ++ <25%)
7 | NC[C@H]1OCCc2c(-c3ccnnc3)cccc21 (single isomer, unassigned) [Compound 79, hydrochloride salt] | 3 to 10 | + (LOQ ≤ + <5%) | + (LOQ ≤ + <5%) | + (LOQ ≤ + <5%) | + (LOQ ≤ + <5%) | ++ (5% ≤ ++ <25%) | + (LOQ ≤ + <5%) | + (LOQ ≤ + <5%) | + (LOQ ≤ + <5%) | + (LOQ ≤ + <5%)
8 | CNC[C@@H]1OCCc2ccc(-c3cncnc3)cc21 (single isomer, unassigned) [Compound 26, hydrochloride] | > 30 | + (LOQ ≤ + <5%) | + (LOQ ≤ + <5%) | + (LOQ ≤ + <5%) | + (LOQ ≤ + <5%) | + (LOQ ≤ + <5%) | + (LOQ ≤ + <5%) | + (LOQ ≤ + <5%) | + (LOQ ≤ + <5%) | + (LOQ ≤ + <5%)
9 | CNC[C@@H]1OCCc2c(-c3ccno3)cccc21 [Compound 94, (R)-1-(5-(Isoxazol-5-yl)isochroman-1-yl)-N-methylmethanamine] | 10 to 30 | + (LOQ ≤ + <5%) | + (LOQ ≤ + <5%) | + (LOQ ≤ + <5%) | + (LOQ ≤ + <5%) | + (LOQ ≤ + <5%) | + (LOQ ≤ + <5%) | + (LOQ ≤ + <5%) | + (LOQ ≤ + <5%) | + (LOQ ≤ + <5%)
10 | CNC[C@@H]1OCCc2c(-c3cnccn3)cccc21 (single isomer, unassigned) [Compound 80] | 3 to 10 | + (LOQ ≤ + <5%) | + (LOQ ≤ + <5%) | ++ (5% ≤ ++ <25%) | + (LOQ ≤ + <5%) | + (LOQ ≤ + <5%) | + (LOQ ≤ + <5%) | + (LOQ ≤ + <5%) | + (LOQ ≤ + <5%) | + (LOQ ≤ + <5%)
11 | NC[C@H]1OCCc2c(-c3ncco3)cccc21 [Compound 107, (S)-(5-(Oxazol-2-yl)isochroman-1-yl)methanamine hydrochloride salt] | 10 to 30 | + (LOQ ≤ + <5%) | + (LOQ ≤ + <5%) | + (LOQ ≤ + <5%) | + (LOQ ≤ + <5%) | +++ (25% ≤ +++ <50%) | + (LOQ ≤ + <5%) | + (LOQ ≤ + <5%) | + (LOQ ≤ + <5%) | + (LOQ ≤ + <5%)
12 | NC[C@H]1OCCCc2c(-c3ccncc3)cccc21 (single isomer, unassigned) [Compound 151] | 3 to 10 | + (LOQ ≤ + <5%) | + (LOQ ≤ + <5%) | ++ (5% ≤ ++ <25%) | + (LOQ ≤ + <5%) | ++++ (50% ≤ ++++) | + (LOQ ≤ + <5%) | + (LOQ ≤ + <5%) | + (LOQ ≤ + <5%) | + (LOQ ≤ + <5%)
13 | NC[C@@H]1OCCc2ccc(-c3cccnc3)cc21 (single isomer, unassigned) [Compound 11, hydrochloride] | 10 to 30 | + (LOQ ≤ + <5%) | ++ (5% ≤ ++ <25%) | + (LOQ ≤ + <5%) | + (LOQ ≤ + <5%) | ++++ (50% ≤ ++++) | + (LOQ ≤ + <5%) | + (LOQ ≤ + <5%) | + (LOQ ≤ + <5%) | + (LOQ ≤ + <5%)
